pEC50: −log10 of the molar value. “Also recorded” adds a separate entry of the source. Like-named read-outs stand apart in the source and are kept apart here.
Assays:
[1] = target: T1, hGRα (Homo sapiens, UniProt P04150); assay: cell-based; assay type: cell-based; conditions: for RCP (relative corticoid potency): ratio EC50 of dexamethasone / EC50 of compound
T1 sequence (P04150 1-777): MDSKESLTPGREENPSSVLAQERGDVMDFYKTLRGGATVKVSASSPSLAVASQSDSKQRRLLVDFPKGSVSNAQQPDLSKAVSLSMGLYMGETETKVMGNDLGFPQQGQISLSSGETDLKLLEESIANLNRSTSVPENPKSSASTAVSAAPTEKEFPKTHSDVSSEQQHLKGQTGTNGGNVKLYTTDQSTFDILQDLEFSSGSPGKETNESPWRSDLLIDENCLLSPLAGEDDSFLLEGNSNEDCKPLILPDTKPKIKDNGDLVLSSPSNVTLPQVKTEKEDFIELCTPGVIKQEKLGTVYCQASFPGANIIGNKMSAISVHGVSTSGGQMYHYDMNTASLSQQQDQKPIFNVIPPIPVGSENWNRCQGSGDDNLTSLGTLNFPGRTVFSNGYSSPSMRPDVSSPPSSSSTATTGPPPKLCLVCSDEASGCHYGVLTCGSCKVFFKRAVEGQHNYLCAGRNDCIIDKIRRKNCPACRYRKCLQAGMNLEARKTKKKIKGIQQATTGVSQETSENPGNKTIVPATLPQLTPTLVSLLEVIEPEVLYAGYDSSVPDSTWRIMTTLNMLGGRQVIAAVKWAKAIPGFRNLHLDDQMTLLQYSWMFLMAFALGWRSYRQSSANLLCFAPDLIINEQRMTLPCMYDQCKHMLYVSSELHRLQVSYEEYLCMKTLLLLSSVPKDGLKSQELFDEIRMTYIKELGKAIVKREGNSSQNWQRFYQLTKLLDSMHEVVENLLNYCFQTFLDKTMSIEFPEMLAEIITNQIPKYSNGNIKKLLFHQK

[2] = target: T2, human glucocorticoid receptor alpha (hGRα) (Homo sapiens, UniProt P04150); assay type: cell-based; conditions: yeast
T2 sequence (P04150 1-777): T1 sequence (P04150 1-777)

[3] = target: T1, hGRα; assay type: cell-based; conditions: GR-CALUX, co-exposure with 1 or 10 nM dexamethasone
[4] = target: T2, human glucocorticoid receptor alpha (hGRα); assay: cell-based; assay type: cell-based; conditions: for pEC50: EC50
[5] = tested on: PR; conditions: yeast-based PR bioassay; cited from earlier work
[6] = tested on: AR; conditions: U2-OS-based CALUX analogue (AR); cited from earlier work
[7] = tested on: AR; conditions: yeast-based AR bioassay; cited from earlier work
[8] = co-exposure with 150 or 500 μM dexamethasone
[9] = co-exposure with budesonide (5 or 50 μM)
[10] = GR-CALUX, agonism, 24 h exposure

SMILES: CC#C[C@]1(O)CC[C@H]2[C@@H]3CCC4=CC(=O)CCC4=C3[C@@H](c3ccc(N(C)C)cc3)C[C@@]21C [Mifepristone, mifepristone]
- EC50 [1]: Not active^b
- GR antagonism, in words [2, 8]: only slightly acted as GR antagonists
- GR antagonism, in words [3]: pure GR antagonists

SMILES: Clc1ccc(Cl)c(-c2cc(Cl)cc(Cl)c2Cl)c1 [PCB92]
- GR antagonism, in words [2, 9]: acts as a GR antagonist
- agonistic response (production of yEGFP), in words [4]: slight agonistic effect

SMILES: C[C@]12CCC(=O)C=C1CC[C@@H]1[C@@H]2C(=O)C[C@@]2(C)[C@H]1CC[C@]2(O)C(=O)CO [Cortisone, cortisone]
- EC50 [1, 10]: Not active
- agonistic response (luciferase activity), in words ([1]; compound alone, GR-CALUX): no response
- RCP (relative corticoid potency) ([1]; GR-CALUX): 0
- EC50 [4]: Not active
- RCP (relative corticoid potency) [4]: 0.0
- agonistic response (production of yEGFP), in words [4]: no response

SMILES: Clc1ccc(-c2ccc(Cl)cc2Cl)c(Cl)c1 [PCB47]
- GR antagonism, in words [2, 9]: only act as GR antagonists

SMILES: CCCC1O[C@@H]2C[C@H]3[C@@H]4CCC5=CC(=O)C=C[C@]5(C)[C@H]4[C@@H](O)C[C@]3(C)[C@]2(C(=O)CO)O1 (stereo partly drawn) [Budesonide, budesonide]
- agonistic response (luciferase activity), in words ([1]; compound alone, GR-CALUX): equally potent
- agonistic response (production of yEGFP), in words [4]: dose-related increase in the production of yEGFP; also recorded: much more potent than Dex
- limit of detection [4]: 0.5 µM

SMILES: C[C@]12C=CC(=O)C=C1CC[C@H]1[C@@H]3C[C@@H](O)[C@](O)(C(=O)CO)[C@@]3(C)C[C@H](O)[C@@]12F [Triamcinolone, triamcinolone]
- pEC50 [1]: 7.72
- RCP (relative corticoid potency) ([1]; GR-CALUX): 0.1
- EC50 [4]: Active^a
- RCP (relative corticoid potency) [4]: Active

SMILES: C[C@H]1C[C@H]2[C@@H]3CCC4=CC(=O)C=C[C@]4(C)[C@@]3(F)[C@@H](O)C[C@]2(C)[C@@]1(O)C(=O)CO [Betamethasone, betamethasone]
- agonistic response (luciferase activity), in words [1]: dose-related increase in luciferase activity
- agonistic response (production of yEGFP), in words [4]: dose-related increase in the production of yEGFP

SMILES: C[C@]12CCC(=O)C=C1CC[C@@H]1[C@@H]2[C@@H](O)C[C@]2(C=O)[C@@H](C(=O)CO)CC[C@@H]12 [Aldosterone]
- pEC50 [1]: 6.31
- agonistic response (luciferase activity), in words ([1]; compound alone, GR-CALUX): dose-related increase in luciferase activity
- RCP (relative corticoid potency) ([1]; GR-CALUX): 0.004
- RCP (relative corticoid potency) [4]: 0.2
- agonistic response (production of yEGFP), in words [4]: dose-related increase in the production of yEGFP
- pEC50 [4]: 3.15

SMILES: CN(C)c1ccc([C@H]2C[C@@]3(C)[C@@H](CC[C@@]3(O)C#Cc3ccc(S(C)(=O)=O)cc3)[C@@H]3CCC4=CC(=O)CCC4=C32)cc1 [Org 34850]
- GR antagonism, in words [2, 8]: only slightly acted as GR antagonists
- GR antagonism, in words [3]: pure GR antagonist

SMILES: C[C@]12CCC(=O)C=C1CC[C@@H]1[C@@H]2[C@@H](O)C[C@@]2(C)[C@H]1CC[C@]2(O)C(=O)CO [Cortisol, cortisol]
- agonistic response (luciferase activity), in words ([1]; compound alone, GR-CALUX): dose-related increase in luciferase activity
- agonistic response (production of yEGFP), in words [4]: dose-related increase in the production of yEGFP

SMILES: C[C@]12C=CC(=O)C=C1CC[C@@H]1[C@@H]2[C@@H](O)C[C@@]2(C)[C@H]1CC[C@]2(O)C(=O)CO [Prednisolone, prednisolone]
- agonistic response (luciferase activity), in words [1]: dose-related increase in luciferase activity
- agonistic response (production of yEGFP), in words [4]: dose-related increase in the production of yEGFP

SMILES: Clc1ccc(-c2c(Cl)cc(Cl)cc2Cl)c(Cl)c1 [PCB100]
- GR antagonism, in words [2, 9]: only act as GR antagonists

SMILES: CC(=O)OCC(=O)[C@@]1(O)CC[C@H]2[C@@H]3CCC4=CC(=O)CC[C@]4(C)[C@@]3(F)[C@@H](O)C[C@@]21C [Fludrocortisone-21-acetate, fludrocortisone-21-acetate]
- agonistic response (luciferase activity), in words ([1]; compound alone, GR-CALUX): active
- EC50 [4]: Not active

SMILES: C[C@]12CCC(=O)C[C@@H]1CC[C@@H]1[C@@H]2CC[C@]2(C)[C@@H](O)CC[C@@H]12 [5α-Dihydrotestosterone, 5α-dihydrotestosterone]
- EC50 [1]: Not active

SMILES: Clc1ccc(Cl)c(-c2cc(Cl)c(Cl)cc2Cl)c1 [PCB101]
- inhibition of the response caused by 5 μM budesonide, in words ([2]; co-exposure with 5 μM budesonide): almost fully inhibiting
- inhibition of the response caused by 50 μM budesonide ([2]; co-exposure with 50 μM budesonide): 50%
- GR antagonism, in words [2, 9]: strongest GR antagonist
- agonistic response (production of yEGFP), in words [4]: agonistic effect that is almost comparable with that of triamcinolone and progesterone

SMILES: C[C@]12C[C@H](O)[C@H]3[C@@H](CCC4=CC(=O)CC[C@@]43C)[C@@H]1CC[C@@H]2C(=O)CO [Corticosterone, corticosterone]
- pEC50 [1]: 7.10
- agonistic response (luciferase activity), in words ([1]; compound alone, GR-CALUX): dose-related increase in luciferase activity
- RCP (relative corticoid potency) ([1]; GR-CALUX): 0.03
- RCP (relative corticoid potency) [4]: 1.7
- agonistic response (production of yEGFP), in words [4]: dose-related increase in the production of yEGFP
- pEC50 [4]: 4.15

SMILES: C[C@]12CC[C@@H]3c4ccc(O)cc4CC[C@H]3[C@@H]1CC[C@@H]2O [17β-Estradiol (E2), 17β-estradiol]
- EC50 [1, 10]: Not active
- RCP (relative corticoid potency) ([1]; GR-CALUX): 0
- EC50 [4]: Not active
- RCP (relative corticoid potency) [4]: 0.0
- agonistic response (production of yEGFP), in words [4]: no agonistic response

SMILES: C[C@@H]1C[C@H]2[C@@H]3CCC4=CC(=O)C=C[C@]4(C)[C@@]3(F)[C@@H](O)C[C@]2(C)[C@@]1(O)C(=O)CO [Dexamethasone, dexamethasone]
- agonistic response (luciferase activity), in words [1]: dose-related increase in luciferase activity
- agonistic response (production of yEGFP), in words [4]: dose-related increase in the production of yEGFP
